Here are results for 12 compounds from PubChem BioAssay (NCI).

Molecules are shown by their SMILES.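 Protocol summary: plate cells (96-well), add compound at 5 concentrations, incubate 48 h, interpolate endpoints linearly. Abbreviation: GI50, concentration required for 50% inhibition of growth. The concentration for full growth arrest is given as TGI.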

Holding throughout (assay): NCI anticancer screen, dose series, 48 h
For experiment [1], the system named is RXF-631 renal.
Experiment [2] has as its system MALME-3M melanoma.
Experiment [3] has as its system UACC-62 melanoma.
In experiment [4] the test system is NCI-H23 lung.
In experiment [5] the test system is K-562 leukemia.
Experiment [6] relates to A498 renal.
Experiment [7] concerns M19-MEL melanoma.
The subject of experiment [8] is SK-OV-3 ovarian.
Experiment [9] has as its system PC-3 prostate.
In experiment [10] the test system is SNB-78 CNS.
For experiment [11], the system named is HCC-2998 colon.
The test system of experiment [12] is DLD-1 colon.

Take `CC(C)N1CC2CC(CN(C(=O)c3ccc(Cl)cc3)C2)C1`: the TGI in experiment [1], in experiment [2], in [3], in experiment [4], in [5] and in [6] was over 100 µM in each case. In addition, the TGI in experiment [7] and in [8] was over 100 µM throughout.
As to `COc1cc2c(cc1OC)C(Cl)C(c1ccc(Br)cc1)=C2Cl` (stereo not drawn), the TGI worked out at 21.6 µM in [9]; 28 µM in experiment [2]; 32.6 µM in [10]; 50.6 µM in experiment [3]; 23.8 µM in [4]; 41.9 µM in experiment [5]. Also, the TGI is 27.4 µM in experiment [11]; 33.1 µM in experiment [6]; 36 µM in experiment [7]; 45.9 µM in [8]; 27.6 µM in [12].
With `CSc1ccc(N2C(=O)C3c4[nH]c5ccccc5c4C4CCC(C(C)(C)C)CC4C3C2=O)cc1` (stereo not drawn), the TGI in [2] is 42.9 µM; in experiment [10], 31.1 µM; in [3] it was 28.9 µM; in experiment [4], 31.9 µM; in experiment [5] it was 34.5 µM; in experiment [11] it was 33.3 µM. Moreover, the TGI is 33.7 µM in [6], over 100 µM in experiment [7], 32.7 µM in experiment [8] and over 100 µM in experiment [12].
`O=C1CCC2(O)c3ccccc3C2Cc2ccccc21` (stereo not drawn): the TGI in experiment [2], in experiment [10], in experiment [3], in experiment [4], in experiment [5] and in experiment [11] was over 100 µM throughout. The TGI in [7] and in experiment [12] was over 100 µM throughout.
With `CC1(C)CC(=O)C(CC2C(=O)CCCC2=O)C(=O)C1`, the TGI in experiment [2], in [10], in experiment [3], in experiment [4], in experiment [5] and in experiment [11] was over 100 µM throughout. For the same compound, the TGI in [6], in [7], in [8] and in [12] was over 100 µM throughout.
Turning to `CCO/C=C\C12CCCC1NC(c1ccccc1)(c1ccccc1)O2` (stereo not drawn), the TGI in [2] was 54.3 µM; in experiment [10], over 100 µM; in experiment [3], 53.4 µM; in experiment [4], 80.2 µM; in [5], 56.7 µM; in experiment [6], over 100 µM. Besides, the TGI in experiment [7] is 64.5 µM; in experiment [8] it was over 100 µM; in experiment [12] it was over 100 µM.
For `O=C(Nc1ccc(Br)cc1)C(=O)C(C(=O)c1ccc(Cl)c(Cl)c1)C1OC(=O)c2ccccc21` (stereo not drawn), the TGI in [2] is 24.1 µM; in [10], over 100 µM; in experiment [3], 26.4 µM; in [4] it was 29.3 µM; in [5] it was over 100 µM; in [11], 29.2 µM. Moreover, the TGI is 33.9 µM in experiment [6], 31.1 µM in experiment [7], over 100 µM in [8] and 39.6 µM in experiment [12].
As to `O=C1C=CC2C3C(=O)N(c4ccccc4)C(=O)C3C1N2Cc1ccccc1` (stereo not drawn), the GI50 was 4.67 µM in [9]; 4.62 µM in experiment [2]; 2.01 µM in experiment [3]; 5.37 µM in experiment [4]; 1.67 µM in [5]; 7.95 µM in experiment [11]. Moreover, the GI50 in [6] was 8.57 µM; in experiment [8], 13.2 µM. In addition, the TGI in [9] was 13 µM; in experiment [2], 9.43 µM; in experiment [3] it was 6.19 µM; in [4], over 48.3 µM; in experiment [5], 6.55 µM; in [11], 18.7 µM. Further, the TGI in experiment [6] stood at 22.8 µM; in [8], 26.1 µM.
In the case of `Oc1c(C(Nc2ccccn2)c2ccccc2)ccc2cccnc12` (stereo not drawn), the TGI is 30.3 µM in experiment [9]; 22 µM in [2]; 22.2 µM in [3]; over 77 µM in experiment [4]; 24.9 µM in experiment [5]; over 100 µM in [11]. Further, the TGI in [6] is 54.8 µM; in [8], 63.8 µM.
For `CCN1CCN(C(=O)[C@]23CC[C@@H](C)[C@H](C)[C@@H]2C2=CC[C@@H]4[C@@]5(C)CCC(=O)C(C)(C)[C@@H]5CC[C@@]4(C)[C@]2(C)CC3)CC1`, the GI50 in experiment [9] was 0.875 µM; in experiment [2] it was 0.807 µM; in experiment [3], 0.835 µM; in [4], 1.08 µM; in experiment [5], 0.994 µM; in experiment [11], 0.922 µM. The GI50 in experiment [6] was 0.927 µM; in [8], 1.51 µM. Moreover, the TGI in experiment [9] was 3.17 µM; in experiment [2] it was 1.51 µM; in experiment [3], 1.61 µM; in [4] it was 2.9 µM; in experiment [5], 2.9 µM; in experiment [11], 1.82 µM. The TGI in experiment [6] turned out to be 2.42 µM; in experiment [8], 4.83 µM.
With `Oc1c(C(c2ccc(F)cc2)N2CCCCC2)ccc2cncnc12` (stereo not drawn), the GI50 in [9] is 0.426 µM; in experiment [2] it was 1.17 µM; in experiment [3], 0.476 µM; in experiment [4], 0.414 µM; in experiment [5], 0.503 µM; in [11] it was 2.09 µM. Moreover, the GI50 in experiment [6] is 1.46 µM; in experiment [8] it was 0.571 µM. For the same compound, the TGI in [9] is over 100 µM; in experiment [2], 47.9 µM; in [3], 5.11 µM; in [4] it was over 100 µM; in experiment [5], over 100 µM; in experiment [11], over 100 µM. Further, the TGI in experiment [6] was determined as 9.43 µM; in experiment [8], 38.8 µM.
Take `Cc1ccsc1C(NC(=O)c1ccccc1)c1cc(Cl)c2cccnc2c1O` (stereo not drawn): the GI50 is 0.45 µM in experiment [9]; 1.1 µM in experiment [2]; 0.339 µM in [3]; 0.65 µM in experiment [4]; 0.381 µM in [5]; 0.775 µM in experiment [11]. Moreover, the GI50 was 0.936 µM in [6] and 0.617 µM in experiment [8]. Moreover, the TGI was 16.6 µM in experiment [9]; 13.9 µM in experiment [2]; 5.22 µM in experiment [3]; 17.5 µM in experiment [4]; over 100 µM in [5]; 16.2 µM in [11]. The TGI in experiment [6] was 7.29 µM; in experiment [8], 7.96 µM.
